Measurements published in the supplement of paper PMC11061612.

Tests used:
Test in all cases: combination Emax (second highest fraction inhibited in the dose matrix, 72 h); higher = more inhibition; extreme values may be limits of the assay
[1] = test system: UACC-812 (Breast Carcinoma)
Procedure, shortened: (§1)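 After 24 hours at 37°C and 5% CO2 in 1536-well plates, cells in DMEM/F12 or RPMI plus 10% FBS received two-drug dose matrices for 72 hours. Viability came from CellTiter-Glo 2.0 luminescence and was scaled as inhibition, anchored at 0 by vehicle wells and at 1 by blank wells. Combination Emax is taken as the second-highest inhibition in the matrix, and Bliss excess as the observed combination effect less EA + EB − EA·EB, with EA and EB the single-agent effects.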

[2] = test system: AU565 (Breast Carcinoma)
Procedure, shortened: as §1

[3] = test system: NCI-H716 (Colorectal Carcinoma)
Procedure, shortened: as §1

[4] = test system: A101D (Melanoma)
Procedure, shortened: as §1

[5] = test system: ESO26 (Esophageal Adenocarcinoma)
Procedure, shortened: as §1

[6] = test system: NCI-H1703 (Squamous Cell Lung Carcinoma)
Procedure, shortened: as §1

[7] = test system: EW-7 (Ewing's Sarcoma)
Procedure, shortened: as §1

[8] = test system: KYSE-220 (Esophageal Squamous Cell Carcinoma)
Procedure, shortened: as §1

[9] = test system: A204 (Rhabdomyosarcoma)
Procedure, shortened: as §1

[10] = test system: NCI-H2087 (Lung Adenocarcinoma)
Procedure, shortened: as §1

[11] = test system: A253 (Head and Neck Carcinoma)
Procedure, shortened: as §1

[12] = test system: huH-1 (Hepatocellular Carcinoma)
Procedure, shortened: as §1

[13] = test system: PEO1 (Ovarian Carcinoma)
Procedure, shortened: as §1

[14] = test system: JHU-022 (Oral Cavity Carcinoma)
Procedure, shortened: as §1

[15] = test system: NCI-H2228 (Lung Adenocarcinoma)
Procedure, shortened: as §1

[16] = test system: EPLC-272H (Other Solid Carcinomas)
Procedure, shortened: as §1

[17] = test system: HT55 (Colorectal Carcinoma)
Procedure, shortened: as §1

[18] = test system: 5637 (Bladder Carcinoma)
Procedure, shortened: as §1

[19] = test system: CAL-27 (Oral Cavity Carcinoma)
Procedure, shortened: as §1

[20] = test system: OACp4C (Esophageal Adenocarcinoma)
Procedure, shortened: as §1

Structure (SMILES)	combination Emax [1]	combination Emax [2]	combination Emax [3]	combination Emax [4]	combination Emax [5]	combination Emax [6]	combination Emax [7]	combination Emax [8]	combination Emax [9]	combination Emax [10]	combination Emax [11]	combination Emax [12]	combination Emax [13]	combination Emax [14]	combination Emax [15]	combination Emax [16]	combination Emax [17]	combination Emax [18]	combination Emax [19]	combination Emax [20]
COc1nnc2ccc(N3CCC(c4ccc(OCCN5CCN(C)C(=O)[C@H]5C)cc4)CC3)nn12 [AZD5153] + C[C@@H]1COCCN1C2=NC(=NC(=C2)C3(CC3)[S@](=N)(=O)C)C4=C5C=CNC5=NC=C4 [AZD6738] (first compound max 1 µM, 7x7, partner max 10 µM)	0.479	0.502	0.702	0.805	0.84	0.973	0.961	0.863	0.573	0.728	0.736	0.69	0.748	0.563	0.594	0.919	0.748	0.823	0.659	0.856
COc1nnc2ccc(N3CCC(c4ccc(OCCN5CCN(C)C(=O)[C@H]5C)cc4)CC3)nn12 [AZD5153] + Cc1c2c(nn1C)CSCc1cc(n(C)n1)CSc1cc(c3ccccc3c1)OCCCc1c(C(=O)O)n(C)c3c-2c(Cl)ccc13 [AZD5991] (first compound max 1 µM, 7x7, partner max 1 µM)	0.8	1	0.817	0.924	0.778	0.966	0.759	0.842	0.73	0.453	0.816	0.435	0.432	0.417	0.372	0.959	0.61	0.637	1	0.789
COc1nnc2ccc(N3CCC(c4ccc(OCCN5CCN(C)C(=O)[C@H]5C)cc4)CC3)nn12 [AZD5153] + Cn1cnc2c(F)c(Nc3ccc(Br)cc3Cl)c(C(=O)NOCCO)cc21 [Selumetinib] (first compound max 1 µM, 7x7, partner max 10 µM)	0.331	0.328	0.879	0.872	0.709	0.626	0.357	0.808	0.484	0.631	0.456	0.438	0.483	0.508	0.428	0.868	0.857	0.81	0.795	0.945
Cc1c2c(nn1C)CSCc1cc(n(C)n1)CSc1cc(c3ccccc3c1)OCCCc1c(C(=O)O)n(C)c3c-2c(Cl)ccc13 [AZD5991] + C1CN(CCC1(C(=O)N[C@@H](CCO)C2=CC=C(C=C2)Cl)N)C3=NC=NC4=C3C=CN4 [Capivasertib] (first compound max 1 µM, 7x7, partner max 3 µM)	0.427	1	0.401	1	0.405	0.847	0.725	0.252	0.689	0.129	0.92	0.227	0.207	0.356	0.426	0.932	0.269	0.174	0.996	0.783
Cc1c2c(nn1C)CSCc1cc(n(C)n1)CSc1cc(c3ccccc3c1)OCCCc1c(C(=O)O)n(C)c3c-2c(Cl)ccc13 [AZD5991] + C=CCn1c(=O)c2cnc(Nc3ccc(N4CCN(C)CC4)cc3)nc2n1-c1cccc(C(C)(C)O)n1 [AZD1775] (first compound max 1 µM, partner max 1 µM)	0.478	1	0.611	1	0.683	0.954	0.919	0.848	0.829	0.481	0.904	0.552	0.397	0.451	0.55	0.971	0.715	0.954	0.972	0.951
Cc1c2c(nn1C)CSCc1cc(n(C)n1)CSc1cc(c3ccccc3c1)OCCCc1c(C(=O)O)n(C)c3c-2c(Cl)ccc13 [AZD5991] + CCN(CCO)CCCOc1ccc2c(Nc3cc(CC(=O)Nc4cccc(F)c4)[nH]n3)ncnc2c1 [AZD2811] (first compound max 1 µM, 7x7, partner max 1 µM)	0.508	1	0.349	0.998	0.319	0.874	0.655	0.308	0.688	0.191	0.896	0.387	0.321	0.273	0.296	0.945	0.553	0.91	0.974	0.827
Cc1c2c(nn1C)CSCc1cc(n(C)n1)CSc1cc(c3ccccc3c1)OCCCc1c(C(=O)O)n(C)c3c-2c(Cl)ccc13 [AZD5991] + CN(C)CCCOc1ccc(-c2ccc3ncc4c(c3c2)n(C2CCOCC2)c(=O)n4C)cn1 [AZD0156] (first compound max 1 µM, 7x7, partner max 1 µM)	0.491	1	0.294	1	0.269	0.892	0.376	0.278	0.729	0.201	0.908	0.24	0.15	0.172	0.307	0.936	0.276	0.216	0.958	0.469
Cc1c2c(nn1C)CSCc1cc(n(C)n1)CSc1cc(c3ccccc3c1)OCCCc1c(C(=O)O)n(C)c3c-2c(Cl)ccc13 [AZD5991] + C[C@@H]1COCCN1C2=NC(=NC(=C2)C3(CC3)[S@](=N)(=O)C)C4=C5C=CNC5=NC=C4 [AZD6738] (first compound max 1 µM, 7x7, partner max 10 µM)	0.674	1	0.574	1	0.544	0.961	0.998	0.877	0.773	0.588	0.976	0.623	0.522	0.492	0.433	0.993	0.503	0.787	1	0.851
Cc1c2c(nn1C)CSCc1cc(n(C)n1)CSc1cc(c3ccccc3c1)OCCCc1c(C(=O)O)n(C)c3c-2c(Cl)ccc13 [AZD5991] + C[C@@H](Nc1cc(F)cc(F)c1)c1cc(C(=O)N(C)C)cc2c(=O)cc(N3CCOCC3)oc12 [AZD8186] (first compound max 1 µM, 7x7, partner max 3 µM)	0.649	1	0.265	0.952	0.284	0.87	0.3	0.177	0.785	0.167	0.777	0.192	0.257	0.398	0.321	0.916	0.272	0.25	0.936	0.664
Cc1c2c(nn1C)CSCc1cc(n(C)n1)CSc1cc(c3ccccc3c1)OCCCc1c(C(=O)O)n(C)c3c-2c(Cl)ccc13 [AZD5991] + Cc1cc2ncnn2cc1Nc1ncc2c(n1)n(C1CCOCC1)c(=O)n2C [AZD7648] (first compound max 1 µM, 7x7, partner max 10 µM)	0.488	1	0.228	0.997	0.198	0.891	0.652	0.218	0.659	0.187	0.849	0.337	0.178	0.245	0.354	0.94	0.242	0.233	0.985	0.485
Cc1c2c(nn1C)CSCc1cc(n(C)n1)CSc1cc(c3ccccc3c1)OCCCc1c(C(=O)O)n(C)c3c-2c(Cl)ccc13 [AZD5991] + Cn1cnc2c(F)c(Nc3ccc(Br)cc3Cl)c(C(=O)NOCCO)cc21 [Selumetinib] (first compound max 1 µM, 7x7, partner max 3 µM)	0.579	1	0.515	1	0.274	0.856	0.271	0.304	0.459	0.588	0.944	0.152	0.25	0.398	0.249	0.94	0.692	0.37	0.988	0.835
C[C@@H]1COCCN1c1cc(C2([S@](C)(=N)=O)CC2)nc(-c2ccnc3[nH]ccc23)n1 [AZD6738] + O=C(c1cc(Cc2n[nH]c(=O)c3ccccc23)ccc1F)N1CCN(C(=O)C2CC2)CC1 [Olaparib] (first compound max 10 µM, 7x7, partner max 10 µM)	0.351	0.449	0.468	0.661	0.319	0.847	0.929	0.808	0.417	0.534	0.806	0.685	0.585	0.563	0.523	0.824	0.446	0.726	0.793	0.71
COc1cccc2c1C(=O)c1c(O)c3c(c(O)c1C2=O)C[C@@](O)(C(=O)CO)C[C@@H]3O[C@H]1C[C@H](N)[C@H](O)[C@H](C)O1 [Doxorubicin] + Cc1cc2ncnn2cc1Nc1ncc2c(n1)n(C1CCOCC1)c(=O)n2C [AZD7648] (first compound max 1 µM, 7x7, partner max 10 µM)	0.296	0.733	0.305	0.897	0.801	0.932	0.889	0.979	0.925	0.655	0.957	0.55	0.419	0.858	0.742	0.539	0.678	0.546	0.741	0.783
